Source: ChEMBL document CHEMBL3991949, “Inhibition of DCPS” (2009)
Values belong to the compound of their own block, whether it stands above or below them. Active and inactive are the calls of the source. The rule behind the calls is not given here.

How the values were obtained:
m7GpppX diphosphatase [1] = target: T1, m7GpppX diphosphatase (Homo sapiens, UniProt Q96C86); assay: Inhibition of recombinant flag-tagged DcpS (unknown origin) decapping activity assessed as reduction in hydrolysis of m7GpppG to m7G using unlabeled cap structure as substrate after 30 secs by PEI cellulose thin-layer chromatographic assay
T1 sequence (Q96C86 whole entry): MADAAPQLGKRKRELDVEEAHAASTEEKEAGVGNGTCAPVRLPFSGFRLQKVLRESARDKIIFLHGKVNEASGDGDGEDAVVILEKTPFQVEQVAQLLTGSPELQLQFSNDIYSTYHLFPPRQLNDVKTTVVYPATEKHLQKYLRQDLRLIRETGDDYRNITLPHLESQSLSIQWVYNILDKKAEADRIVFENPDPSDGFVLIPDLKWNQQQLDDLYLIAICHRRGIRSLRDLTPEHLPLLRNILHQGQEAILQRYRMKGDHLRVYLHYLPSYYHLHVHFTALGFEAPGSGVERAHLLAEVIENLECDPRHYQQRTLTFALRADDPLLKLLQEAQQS

m7GpppX diphosphatase [2] = target: T2, m7GpppX diphosphatase (Mus musculus, UniProt Q9DAR7); assay: Inhibition of DcpS in human SMN2 promoter driven mouse NSC-34 cells assessed as increase in SMN2 mRNA expression after 18 hrs by RT-PCR analysis
T2 sequence (Q9DAR7 whole entry): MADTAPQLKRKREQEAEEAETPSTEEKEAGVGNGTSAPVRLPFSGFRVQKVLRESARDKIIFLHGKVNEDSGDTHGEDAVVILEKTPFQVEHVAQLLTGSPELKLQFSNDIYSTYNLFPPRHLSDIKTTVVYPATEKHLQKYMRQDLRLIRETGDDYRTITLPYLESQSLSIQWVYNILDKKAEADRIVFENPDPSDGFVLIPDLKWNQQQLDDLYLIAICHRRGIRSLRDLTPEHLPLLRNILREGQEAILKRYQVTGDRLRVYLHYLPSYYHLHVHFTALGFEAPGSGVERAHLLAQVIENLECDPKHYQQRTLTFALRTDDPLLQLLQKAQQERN

m7GpppX diphosphatase [3] = target: T2, m7GpppX diphosphatase; assay: Inhibition of DcpS in human SMN2 promoter driven mouse NSC-34 cell lysate assessed as increase in SMN2 expression after 18 hrs by beta-lactamase reporter gene assay
[4] = target: T3, m7GpppX diphosphatase (Homo sapiens) (UniProt Q96C86); assay: Binding affinity to recombinant human N-terminal GST-tagged DcpS expressed in baculovirus-infected Sf9 insect cells at 100 nM after 90 mins in presence of [125I]-streptavidin by microarray assay; details: tested as the 125I-labelled form
T3 sequence (whole entry): T1 sequence (Q96C86 whole entry)

[5] = target: T3, m7GpppX diphosphatase (Homo sapiens); assay: Inhibition of recombinant flag-tagged DcpS (unknown origin) decapping activity assessed as hydrolysis of m7GpppG to m7G at 200 nM using unlabeled cap structure as substrate after 30 secs by PEI cellulose thin-layer chromatographic assay (reference value: 62%); set-up: scale not given: the % may be the effect or the level left
[6] = target: T3, m7GpppX diphosphatase (Homo sapiens); assay: Inhibition of recombinant flag-tagged DcpS (unknown origin) decapping activity assessed as hydrolysis of m7GpppG to m7G at 1.6 nM using unlabeled cap structure as substrate after 30 secs by PEI cellulose thin-layer chromatographic assay (reference value: 62%); set-up: scale not given: the % may be the effect or the level left
[7] = target: T3, m7GpppX diphosphatase (Homo sapiens); assay: Inhibition of recombinant flag-tagged DcpS (unknown origin) decapping activity assessed as hydrolysis of m7GpppG to m7G at 40 nM using unlabeled cap structure as substrate after 30 secs by PEI cellulose thin-layer chromatographic assay (reference value: 62%); set-up: scale not given: the % may be the effect or the level left
[8] = target: T3, m7GpppX diphosphatase (Homo sapiens); assay: Inhibition of recombinant flag-tagged DcpS (unknown origin) decapping activity assessed as hydrolysis of m7GpppG to m7G at 8 nM using unlabeled cap structure as substrate after 30 secs by PEI cellulose thin-layer chromatographic assay (reference value: 62%); set-up: scale not given: the % may be the effect or the level left
Mus musculus [9] = assay: Induction in delay of onset of body mass loss in timed-pregnant SMNdelta7 carrier mouse prenatal dams at 3 mg/kg/day administered orally only during prenatal period; type: functional
Mus musculus [10] = assay: Increase in SMN protein levels in spinal cord extracts isolated from SMNdelta7 SMA mouse model at 3 mg/kg/day administered orally beginning at PND04 for 5 days by immunoblot analysis; type: functional
Mus musculus [11] = assay: Increase in SMN protein levels in spinal cord extracts isolated from SMNdelta7 SMA mouse model at 3 mg/kg/day administered orally beginning at PND04 for 5 days by immunoblot analysis relative to SMNdelta7 carrier mouse; type: functional
Mus musculus [12] = assay: Increase in life span of SMNdelta7 SMA mouse model at 3 mg/kg/day administered orally beginning at PND04, continued for duration of their lives by Kaplan-Meier plot method relative to untreated control; type: functional
Mus musculus [13] = assay: Increase in life span of timed-pregnant SMNdelta7 carrier mouse prenatal dams at 3 mg/kg/day administered orally beginning at embryonic day 11.5 continued after birth (reference value: 13.3 +/- 0.6 day); type: functional
Mus musculus [14] = assay: Toxicity in SMNdelta7 carrier mouse assessed as adverse events at 0.1 to 30 mg/kg/day administered orally beginning at PND04 for 5 days; type: organism-based; details: in vivo, po, 120 h
Brain [15] = assay: Drug uptake in brain of SMNdelta7 carrier mouse […] at 0.1 to 30 mg/kg/day administered orally beginning at PND04 for 5 days; type: ADME, organism-based; details: in vivo, po, 120 h
Mus musculus [16] = assay: Induction in delay of onset of body mass loss in SMNdelta7 SMA mouse model at 3 mg/kg/day administered orally beginning at PND04, continued for duration of their lives by Kaplan-Meier plot method (reference value: 11.1 +/- 0.3 day); type: functional
Mus musculus [17] = assay: (§1) Increase in Smn promoter activity in forebrain extracts isolated from Smn knockout mouse containing LacZ:NeoR cassette inserted into mouse Smn exon 2A assessed as optimal effective dose administered orally beginning at PND04 for 5 days by beta-galactosidase light chemiluminescent reporter gene assay; type: functional
Mus musculus [18] = assay: Effect on life span of SMNdelta7 SMA mouse model assessed as survival at 3 mg/kg/day administered orally on onset of motor neuron loss at PND09, continued for duration of their lives by Kaplan-Meier plot method (reference value: 14 +/- 0.4 day); type: functional
Brain [19] = assay: Drug level in fetal brain extracts isolated from timed-pregnant SMNdelta7 carrier mouse prenatal dams administered orally beginning at embryonic day 11.5 for 5 days by LC-MS-MS analysis; type: ADME, tissue-based; details: in vivo, po, 120 h
Mus musculus [20] = assay: Increase in life span of timed-pregnant SMNdelta7 carrier mouse prenatal dams at 3 mg/kg/day administered orally beginning at embryonic day 11.5 continued through birth and once the pups were born; type: functional
Mus musculus [21] = assay: as §1, with “spinal cord” for “forebrain”; type: functional
Mus musculus [22] = assay: Induction in delay of onset of body mass loss in timed-pregnant SMNdelta7 carrier mouse prenatal dams at 3 mg/kg/day administered orally beginning at embryonic day 11.5 continued through birth and once the pups were born; type: functional

Structure (SMILES): C[n+]1cn([C@@H]2O[C@H](COP(=O)(O)OP(=O)([O-])OP(=O)(O)OC[C@H]3O[C@@H](n4cnc5c(=O)[nH]c(N)nc54)[C@H](O)[C@@H]3O)[C@@H](O)[C@H]2O)c2nc(N)[nH]c(=O)c21
IC50 (m7GpppX diphosphatase [1]): 30 nM

Structure (SMILES): Nc1nc(N)c2c(OCC3CCN(CC4CCNCC4)CC3)cccc2n1
EC50 (m7GpppX diphosphatase [2]): 921 nM

Structure (SMILES): C[n+]1cn([C@@H]2O[C@H](COP(=O)(O)OP(=O)([O-])OP(=O)(O)OC[C@H]3O[C@@H](n4cnc5c(=O)[nH]c(N)nc54)[C@H](O)[C@@H]3O)[C@@H](O)[C@H]2O)c2nc(N)nc(O)c21
Activity [5]: 7%
Activity [6]: 55%
Activity [7]: 24%
Activity [8]: 46%

Structure (SMILES): Nc1nc(N)c2c(OCC3CCN(Cc4ccccc4F)CC3)cccc2n1
Activity (Mus musculus [9]): 10%
Activity (Mus musculus [10]): 70%
Activity (Mus musculus [11]): 25%
Activity (Mus musculus [12]): 21%
Activity (Mus musculus [13]): 14.1 days
Activity (Mus musculus [14]): Non-Toxic
Drug uptake (Brain [15]): Dose-dependent effect
Activity (Mus musculus [16]): 12 days
Activity (Mus musculus [17]): 3 mg/kg/day
Survival (Mus musculus [18]): 14.9 days
Drug uptake (Brain [19]): Dose-dependent effect
Activity (Mus musculus [20]): 30%
Activity (Mus musculus [21]): 3 mg/kg/day
Activity (Mus musculus [22]): 15%

Now from value to compound:

EC50 (m7GpppX diphosphatase [2]): 223 nM
Structure (SMILES): Nc1nc(N)c2c(OCC3CCN(CC(F)(F)F)CC3)cccc2n1

EC50 (m7GpppX diphosphatase [2]): 795 nM
Structure (SMILES): Nc1nc(N)c2c(OCC3CCN(c4ccccc4Cl)CC3)cccc2n1

EC50 (m7GpppX diphosphatase [2]): 2540 nM
Structure (SMILES): CC(=O)Nc1nc(CN2CCC(COc3cccc4nc(N)nc(N)c34)CC2)cs1

EC50 (m7GpppX diphosphatase [3]): 36 nM
Activity [4]: Active
Structure (SMILES): Nc1nc(N)c2c(OCC3CCN(C(=O)c4cccc(I)c4)CC3)cccc2n1

EC50 (m7GpppX diphosphatase [2]): 108 nM
Structure (SMILES): Cn1ccnc1CN1CCC(COc2cccc3nc(N)nc(N)c23)CC1
